From US7098332B2, “5,8-Dihydro-6H-pyrido[2,3-d]pyrimidin-7-ones” (Hoffmann-La Roche Inc., priority 2002, dated 2006)

Assays:
[1] = biological target: T1, FGFR; assay: FGFR kinase HTRF assay; type: biochemical; details: 10 μM ATP
T1 construct: fused on or other part: GST tag
Experimental: (§1) To determine inhibition of KDR, FGFR, EGFR, and PDGFR activity, kinase assays were conducted using an HTRF (Homogeneous Time Resolved Fluorescence) assay. This assay is described in A. J. Kolb et. al., Drug Discovery Today, 1998, 3(7), p 333.
(§2) Kinase activity assays were performed in 96-well polypropylene plates (Falcon) with a total volume of 90 μL in each well. Each well contained 1 μM KDR substrate (Biotin-EEEEYFELVAKKKK), 1 nM activated KDR, and a test compound with one of 8 assay concentrations ranging from 100 μM to […] (1:5 serial dilution). The kinase activity assay was done in the presence of 100 mM HEPES, pH 7.4, 1 mM DTT, 0.1 mM Na2VO4, 25 mM MgCl2, 50 mM NaCl (from KDR stock solution), 1% DMSO (from compound), 0.3 mM ATP (at Km concentration) and 0.02% BSA. The reaction was incubated at 37° C. for 30 minutes. To stop the KDR reaction, 72 μL of reaction mixture was transferred into a STOP plate containing 18 μL of revelation buffer (20 mM EDTA, 50 mM HEPES, pH 7.4, 0.02% BSA, 10 nM Eu-labelled anti-pY antibody (final conc. 2 nM), and 100 nM streptavidin (final conc. 20 nM)). After mixing, 35 μL of solution was transferred into duplicate wells of a 384-well black plate (Costar), and read at 615/665 nm on a Wallac Victor 5 reader.
FGFR, EGFR, and PDGFR activity assays were carried out as described above for the KDR activity assay with the following differences. GST-tagged FGFR enzyme was activated at room temperature for 1 hour in the following activation buffer: 100 mM HEPES, pH 7.4, 50 mM NaCl, 20 mM MgCl2, and 4 mM ATP. The kinase activity assay was performed with 1 μM substrate (Biotin-EEEEYFELV), 1.5 nM activated FGFR, and test compound in the presence of 100 mM HEPES, 1 mM DTT, 0.4 mM MgCl2, 0.4 mM MnCl2, 50 mM NaCl, 1% DMSO, 10 μM ATP (Km=8.5 μM for FGFR), 0.1 mM Na2VO4, and 0.02% BSA, in a total volume of 90 μL. The rest of the assay was performed in the same manner as KDR assay.
(§3) Compound IC50 values were determined from duplicate sets of data, and calculated by using Excel and fitting data to equation Y=[(a−b)/{1+(X/c)^d]+b, where a and b are enzyme activity in the presence of no test inhibitor compound and an infinite amount of inhibitor test compound, respectively, c is the IC50 and d is the hill constant of the compound response. The IC50 value is the concentration of test compound that reduces by 50% the enzyme activity under the test conditions described.

[2] = biological target: PDGFR; assay: PDGFR kinase HTRF assay; type: biochemical; details: 2.3 μM ATP
Experimental: as §1, §2
(§4) The PDGFR kinase activity assay was performed with 1 μM substrate (Biotin-EEEEYFELV), 1.0 nM PDGFR, test compounds, 100 mM HEPES, pH 7.4, 1 mM DTT, 5 mM MgCl2, 2 mM MnCl2, 1% DMSO, 2.3 μM ATP (Km for PDGFR), 0.1 mM Na2VO4, and 0.02% BSA. The rest of the assay was performed in the same manner as the KDR assay.
as §3

[3] = biological target: T2, KDR (Homo sapiens, UniProt P35968); assay: KDR kinase HTRF assay; type: biochemical; details: 0.3 mM ATP
T2 construct: EEE tag
T2 sequence (P35968 20-1356): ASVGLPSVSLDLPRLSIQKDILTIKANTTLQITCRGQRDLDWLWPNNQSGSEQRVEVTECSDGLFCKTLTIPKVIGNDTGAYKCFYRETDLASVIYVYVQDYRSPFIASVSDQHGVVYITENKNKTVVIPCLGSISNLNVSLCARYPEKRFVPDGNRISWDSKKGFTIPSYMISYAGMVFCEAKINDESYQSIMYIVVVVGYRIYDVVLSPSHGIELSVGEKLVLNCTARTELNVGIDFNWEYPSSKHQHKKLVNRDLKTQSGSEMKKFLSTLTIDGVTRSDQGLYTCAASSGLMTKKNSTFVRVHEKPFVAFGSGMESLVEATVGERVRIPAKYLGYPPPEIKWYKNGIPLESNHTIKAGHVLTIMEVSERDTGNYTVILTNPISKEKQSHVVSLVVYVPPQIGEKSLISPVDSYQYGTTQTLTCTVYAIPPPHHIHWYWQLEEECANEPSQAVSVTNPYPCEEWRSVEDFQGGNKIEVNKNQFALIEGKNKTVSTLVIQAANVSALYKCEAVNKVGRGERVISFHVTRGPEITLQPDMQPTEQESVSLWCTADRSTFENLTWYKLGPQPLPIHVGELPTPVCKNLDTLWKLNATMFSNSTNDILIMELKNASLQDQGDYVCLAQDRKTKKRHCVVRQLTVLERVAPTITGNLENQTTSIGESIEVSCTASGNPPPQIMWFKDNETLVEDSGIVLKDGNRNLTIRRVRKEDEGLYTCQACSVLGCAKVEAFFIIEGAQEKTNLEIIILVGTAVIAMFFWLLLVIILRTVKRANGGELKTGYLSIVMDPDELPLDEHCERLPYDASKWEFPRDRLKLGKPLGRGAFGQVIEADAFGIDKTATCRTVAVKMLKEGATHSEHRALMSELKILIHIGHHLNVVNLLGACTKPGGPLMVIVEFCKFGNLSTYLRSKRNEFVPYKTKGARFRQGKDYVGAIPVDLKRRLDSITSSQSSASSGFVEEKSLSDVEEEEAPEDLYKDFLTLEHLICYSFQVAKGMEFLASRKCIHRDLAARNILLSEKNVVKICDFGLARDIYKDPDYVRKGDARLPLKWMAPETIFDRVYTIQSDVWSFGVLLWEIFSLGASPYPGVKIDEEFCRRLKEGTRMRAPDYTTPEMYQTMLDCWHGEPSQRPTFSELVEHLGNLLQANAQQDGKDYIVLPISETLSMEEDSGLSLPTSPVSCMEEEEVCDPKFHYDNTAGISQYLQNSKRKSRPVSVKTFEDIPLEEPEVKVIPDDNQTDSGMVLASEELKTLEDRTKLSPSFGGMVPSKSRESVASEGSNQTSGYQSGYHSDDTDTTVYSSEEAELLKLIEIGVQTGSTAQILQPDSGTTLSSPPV
Experimental: as §1
Prior to kinase reaction, recombinant EEE-tagged KDR was activated in the presence of activation buffer (50 mM HEPES, pH 7.4, 1 mM DTT, 10% glycerol, 150 mM NaCl, 0.1 mM EDTA, 26 mM MgCl2, and 4 mM ATP). The enzyme was incubated at 4° C. for 1 hour.
as §2, §3

[4] = biological target: EGFR (Homo sapiens, UniProt P00533); assay: EGFR kinase HTRF assay; type: biochemical; details: 0.5 μM ATP
Sequence of EGFR (P00533 25-1210, species assumed): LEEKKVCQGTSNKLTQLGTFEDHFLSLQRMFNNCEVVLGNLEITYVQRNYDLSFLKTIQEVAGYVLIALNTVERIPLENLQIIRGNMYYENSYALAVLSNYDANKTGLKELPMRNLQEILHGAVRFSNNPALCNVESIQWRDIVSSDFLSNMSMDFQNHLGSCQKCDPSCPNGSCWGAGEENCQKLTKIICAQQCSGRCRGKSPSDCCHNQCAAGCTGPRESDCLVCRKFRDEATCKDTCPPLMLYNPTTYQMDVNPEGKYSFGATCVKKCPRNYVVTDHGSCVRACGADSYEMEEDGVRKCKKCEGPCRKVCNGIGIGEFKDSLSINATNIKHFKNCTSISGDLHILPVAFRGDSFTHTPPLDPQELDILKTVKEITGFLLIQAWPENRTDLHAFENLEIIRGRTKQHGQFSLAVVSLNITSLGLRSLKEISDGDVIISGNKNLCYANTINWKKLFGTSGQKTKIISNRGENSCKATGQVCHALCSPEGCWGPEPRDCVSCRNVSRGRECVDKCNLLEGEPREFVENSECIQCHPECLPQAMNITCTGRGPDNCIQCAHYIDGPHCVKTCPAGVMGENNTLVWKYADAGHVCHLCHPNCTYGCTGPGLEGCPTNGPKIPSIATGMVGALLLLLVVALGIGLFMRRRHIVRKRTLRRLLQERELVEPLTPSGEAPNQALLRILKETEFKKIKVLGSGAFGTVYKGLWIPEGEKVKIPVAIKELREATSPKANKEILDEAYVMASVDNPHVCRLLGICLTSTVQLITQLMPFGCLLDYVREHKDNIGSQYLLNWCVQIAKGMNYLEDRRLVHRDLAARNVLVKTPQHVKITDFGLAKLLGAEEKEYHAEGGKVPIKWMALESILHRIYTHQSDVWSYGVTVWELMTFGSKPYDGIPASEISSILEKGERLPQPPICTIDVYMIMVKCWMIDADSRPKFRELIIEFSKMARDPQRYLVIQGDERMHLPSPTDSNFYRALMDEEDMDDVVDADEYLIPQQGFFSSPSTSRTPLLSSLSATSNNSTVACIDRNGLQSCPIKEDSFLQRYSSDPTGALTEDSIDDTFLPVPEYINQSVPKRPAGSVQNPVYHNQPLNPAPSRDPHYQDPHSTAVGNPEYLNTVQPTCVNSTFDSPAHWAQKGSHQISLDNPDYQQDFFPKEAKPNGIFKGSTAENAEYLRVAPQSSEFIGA
Experimental: as §1, §2
as §4, with “EGFR” for “PDGFR”, “1.5” for “1.0”, “EGFR,” for “PDGFR,”, “0.5” for “2.3”, “EGFR),” for “PDGFR),”
as §3

[5] = system: Human umbilical vein endothelial cells; assay: VEGF-stimulated HUVEC proliferation assay (BrdU); type: cell-based; details: VEGF 20 ng per mL, BrdU labeling, read-out: HUVEC/VEFG IC50
Experimental: (§5) The antiproliferative activity of test-compounds of this invention in cell-based assays was evaluated by BrdU assay using the BrdU kit (Roche Biochemicals 1-647-229). Human umbilical vein endothelial cells (Clonetics CC-2519) were cultured in EGM-2 (Clonetics CC-3162) medium and seeded at 10000 cells per well in a volume of 200 μL of EGM-2 (Clonetics CC-3162) media in a 96-well flat bottom plates (Costar 3595) overnight. After 24 hours of growth at 37° C. with 5% CO2, the incubation media was removed slowly by aspiration and the content of each well was washed with 300 μL pre-warmed EBM-2 (Clonetics CC-3156) containing 50 μg per mL of gentamycin and 50 ng per mL of amphotercin-B (Clonetics CC-4083). […]
(§6) After 24 hour exposure to the test compounds, the cells were labeled with BrdU (Roche Biochemicals 1-647-229), by adding 20 μL per well of BrdU labeling reagent that has been diluted (1:100) in serum starvation medium. […] The plates were read at 450 nm with reference wavelength of 650 nm. The percent inhibition for each test compound was calculated by subtracting the absorbency of the blank (no cells) wells from all wells, then subtracting the division of the average absorbency of each test duplicate by the average of the controls from 1. […] The IC50 is determined from the linear regression of a plot of the logarithm of the concentration versus percent inhibition.

[6] = system: Human umbilical vein endothelial cells; assay: FGF-stimulated HUVEC proliferation assay (BrdU); type: cell-based; details: FGF 5 ng per mL, BrdU labeling, read-out: HUVEC/bFGFR IC50
Experimental: as §5, §6

Row | Compound | IC50 [1] | IC50 [2] | IC50 [3] | IC50 [4] | IC50 [5] | IC50 [6]
1 | COc1ccc(C2Cc3cnc(Nc4ccccc4)nc3N(c3ccccc3)C2=O)cc1 (stereo not drawn) [Example 1f, 6-(4-Methoxy-phenyl)-8-phenyl-2-phenylamino-5,8-dihydro-6H-pyrido[2,3-d]pyrimidin-7-one] | < 10 µM | < 10 µM | < 10 µM | < 10 µM |  | 
2 | COc1ccc(C2Cc3cnc(Nc4ccc(OC)nc4)nc3N(c3ccccc3)C2=O)cc1 (stereo not drawn) [Example 12d, 6-(4-Methoxy-phenyl)-2-(6-methoxy-pyridin-3-ylamino)-8-phenyl-5,8-dihydro-6H-pyrido[2,3-d]pyrimidine-7-one] | < 10 µM | < 10 µM | < 10 µM | < 10 µM |  | 
3 | COc1ccc(C2Cc3cnc(Nc4ccccc4)nc3N(CC(C)C)C2=O)cc1 (stereo not drawn) [Example 13b, 8-Isobutyl-6-(4-methoxy-phenyl)-2-phenylamino-5,8-dihydro-6H-pyrido[2,3-d]pyrimidine-7-one] | < 10 µM | < 10 µM | < 10 µM | < 10 µM |  | 
4 | O=C1C(c2cccnc2)Cc2cnc(Nc3ccccc3)nc2N1c1ccccc1 (stereo not drawn) [Example 10c, 8-Phenyl-2-phenylamino-6-pyridin-3-yl-5,8-dihydro-6H-pyrido[2,3-d]pyrimidin-7-one] | < 10 µM | < 10 µM | < 10 µM | < 10 µM |  | 
5 | COc1ccccc1C1Cc2cnc(Nc3ccccc3)nc2N(c2ccccc2)C1=O (stereo not drawn) [Example 7c, 6-(2-Methoxy-phenyl)-8-phenyl-2-phenylamino-5,8-dihydro-6H-pyrido[2,3-d]pyrimidin-7-one] | < 10 µM | < 10 µM | < 10 µM | < 10 µM |  | 
6 | COc1ccc(C2Cc3cnc(Nc4ccccc4)nc3N(c3ccccc3)C2=O)cc1OC (stereo not drawn) [Example 11c, 6-(3,4-Dimethoxy-phenyl)-8-phenyl-2-phenylamino-5,8-dihydro-6H-pyrido[2,3-d]pyrimidin-7-one] | < 10 µM | < 10 µM | < 10 µM | > 10 µM |  | 
7 | O=C1C(c2cc(C(F)(F)F)cc(C(F)(F)F)c2)Cc2cnc(Nc3ccccc3)nc2N1c1ccccc1 (stereo not drawn) [Example 8d, 6-(3,5-Bis-trifluromethyl-phenyl)-8-phenyl-2-phenylamino-5,8-dihydro-6H-pyrido[2,3-d]pyrimidin-7-one] | > 10 µM | < 10 µM | > 10 µM | > 10 µM |  | 
8 | O=C1C(c2ccncc2)Cc2cnc(Nc3ccccc3)nc2N1c1ccccc1 (stereo not drawn) [Example 9c, 8-Phenyl-2-phenylamino-6-pyridin-4-yl-5,8-dihydro-6H-pyrido[2,3-d]pyrimidin-7-one] | > 10 µM | > 10 µM | < 10 µM | < 10 µM |  | 
9 | COc1ccc(OC)c(C2Cc3cnc(Nc4ccccc4)nc3N(c3ccccc3)C2=O)c1 (stereo not drawn) [Example 6c, 6-(2,5-Dimethoxy-phenyl)-8-phenyl-2-phenylamino-5,8-dihydro-6H-pyrido[2,3-d]pyrimidin-7-one] | < 10 µM | < 10 µM | < 10 µM | < 10 µM |  | 
10 | O=C1C(c2c(Cl)cccc2Cl)Cc2cnc(Nc3ccccc3)nc2N1c1ccccc1 (stereo not drawn) [Example 2c, 6-(2,6-Dichloro-phenyl)-8-phenyl-2-phenylamino-5,8-dihydro-6H-pyrido[2,3-d]pyrimidin-7-one] | < 10 µM | < 10 µM | < 10 µM | < 10 µM | < 10 µM | < 10 µM
11 | COc1ccc(C2Cc3cnc(Nc4ccccc4)nc3N(CC3CC3)C2=O)cc1 (stereo not drawn) [Example 14b, 8-Cyclopropylmethyl-6-(4-methoxy-phenyl)-2-phenylamino-5,8-dihydro-6H-pyrido[2,3-d]pyrimidine-7-one] | < 10 µM | < 10 µM | < 10 µM | < 10 µM |  | 
12 | O=C1C(c2ccccc2)Cc2cnc(Nc3ccccc3)nc2N1c1ccccc1 (stereo not drawn) [Example 5c, 6,8-Diphenyl-2-phenylamino-5,8-dihydro-6H-pyrido[2,3-d]pyrimidin-7-one] | < 10 µM | < 10 µM | < 10 µM | < 10 µM |  | 
13 | Cc1ccccc1C1Cc2cnc(Nc3ccccc3)nc2N(c2ccccc2)C1=O (stereo not drawn) [Example 4c, 8-Phenyl-2-phenylamino-6-O-tolyl-5,8-dihydro-6H-pyrido[2,3-d]pyrimidin-7-one] | < 10 µM | < 10 µM | < 10 µM | < 10 µM |  | 
